Experimental data published in ChEMBL document CHEMBL1201862, “PubChem BioAssay data set” (2004).
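Compound exposure: 48 hours, 5 concentrations, 96-well plates. GI50 is the concentration that inhibits growth by half.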 Activity calls are given as the source filed them. Cut-off read from the data, not from the text of the source: active = GI50 up to about 1.1 µM and inactive = higher.

Tests used:
Assay in all cases: NCI-60 cell line screen, 48 h
SNB-75 = test system: SNB-75
NCI-H460 = test system: NCI-H460
UO-31 = test system: UO-31
SK-MEL-5 = test system: SK-MEL-5
RPMI-8226 = test system: RPMI-8226
M14 = test system: M14
A498 = test system: A498
COLO 205 = test system: COLO 205
SF-268 = test system: SF-268
HOP-62 = test system: HOP-62
SK-MEL-2 = test system: SK-MEL-2
LOX IMVI = test system: LOX IMVI
MOLT-4 = test system: MOLT-4
SF-539 = test system: SF-539
SF-295 = test system: SF-295
SK-MEL-28 = test system: SK-MEL-28
UACC-62 = test system: UACC-62
HOP-92 = test system: HOP-92

| Compound | GI50 (SNB-75) | GI50 (NCI-H460) | GI50 (UO-31) | GI50 (SK-MEL-5) | GI50 (RPMI-8226) | GI50 (M14) | GI50 (A498) | GI50 (COLO 205) | GI50 (SF-268) | GI50 (HOP-62) | GI50 (SK-MEL-2) | GI50 (LOX IMVI) | GI50 (MOLT-4) | GI50 (SF-539) | GI50 (SF-295) | GI50 (SK-MEL-28) | GI50 (UACC-62) | GI50 (HOP-92) |
| --- | --- | --- | --- | --- | --- | --- | --- | --- | --- | --- | --- | --- | --- | --- | --- | --- | --- | --- |
| Cc1cc(C)nc(NS(=O)(=O)c2ccc(NC(=O)c3cccc4c(N)c5ccccc5nc34)cc2)n1 | > 100 µM (inactive) | > 100 µM (inactive) | > 100 µM (inactive) | > 100 µM (inactive) | 34.2 µM (inactive) | > 100 µM (inactive) | > 100 µM (inactive) | > 100 µM (inactive) | > 100 µM (inactive) | > 100 µM (inactive) | > 100 µM (inactive) | 53.6 µM (inactive) | 35 µM (inactive) | 31.6 µM (inactive) | > 100 µM (inactive) | > 100 µM (inactive) | > 100 µM (inactive) | – |
| O=C(Nc1ccc(Cl)cc1Cl)C(=O)C(C(=O)c1ccc2ccccc2c1)C1OC(=O)c2ccccc21 (stereo unspecified) | – | 4.33 µM (inactive) | 11.4 µM (inactive) | 9.73 µM (inactive) | 4.06 µM (inactive) | 13.4 µM (inactive) | 6.7 µM (inactive) | 9.46 µM (inactive) | > 10 µM (inactive) | 11.9 µM (inactive) | 13.7 µM (inactive) | 5.19 µM (inactive) | – | 2.68 µM (inactive) | 4.02 µM (inactive) | 3.48 µM (inactive) | 9.79 µM (inactive) | 3.3 µM (inactive) |
| COC(=O)C(C)(C)/N=C/N(C)C | > 100 µM (inactive) | > 100 µM (inactive) | > 100 µM (inactive) | > 100 µM (inactive) | – | > 100 µM (inactive) | > 100 µM (inactive) | > 100 µM (inactive) | > 100 µM (inactive) | > 100 µM (inactive) | > 100 µM (inactive) | 68.2 µM (inactive) | > 100 µM (inactive) | > 100 µM (inactive) | > 100 µM (inactive) | > 100 µM (inactive) | > 100 µM (inactive) | > 100 µM (inactive) |
| Cn1cccc(C(=O)c2ccccc2)c1=O | > 100 µM (inactive) | > 100 µM (inactive) | > 100 µM (inactive) | > 100 µM (inactive) | > 100 µM (inactive) | > 100 µM (inactive) | – | > 100 µM (inactive) | > 100 µM (inactive) | > 100 µM (inactive) | > 100 µM (inactive) | > 100 µM (inactive) | > 100 µM (inactive) | > 100 µM (inactive) | > 100 µM (inactive) | > 100 µM (inactive) | > 100 µM (inactive) | > 100 µM (inactive) |
| CC(CN(C)C)/C(=N\Nc1ccccc1)c1ccccc1 (stereo unspecified) | 13 µM (inactive) | 0.171 µM (active) | 1.13 µM (inactive) | 3.3 µM (inactive) | 0.366 µM (active) | 1.46 µM (inactive) | 29.2 µM (inactive) | 1.03 µM (active) | 0.22 µM (active) | 0.767 µM (active) | – | 0.0456 µM (active) | 0.184 µM (active) | 0.272 µM (active) | 0.0436 µM (active) | 2.02 µM (inactive) | 0.0755 µM (active) | – |
| CC(=O)CC(=O)CCCC(=O)Nc1ccc(Cl)cc1Cl | > 100 µM (inactive) | > 100 µM (inactive) | > 100 µM (inactive) | – | > 100 µM (inactive) | > 100 µM (inactive) | – | > 100 µM (inactive) | > 100 µM (inactive) | > 100 µM (inactive) | > 100 µM (inactive) | > 100 µM (inactive) | > 100 µM (inactive) | > 100 µM (inactive) | > 100 µM (inactive) | > 100 µM (inactive) | > 100 µM (inactive) | > 100 µM (inactive) |
| O=C(Nc1nc2ccc([N+](=O)[O-])cc2s1)C(=O)C(C(=O)c1ccncc1)C1OC(=O)c2ccccc21 (stereo unspecified) | 33.9 µM (inactive) | – | – | – | > 100 µM (inactive) | > 100 µM (inactive) | 48.6 µM (inactive) | > 100 µM (inactive) | > 100 µM (inactive) | > 100 µM (inactive) | – | – | > 100 µM (inactive) | – | – | – | > 100 µM (inactive) | > 100 µM (inactive) |
| COc1cc2c(cc1OC)C(C(=O)O)C(c1ccccc1)N(C)C2=O (stereo unspecified) | > 100 µM (inactive) | > 100 µM (inactive) | > 100 µM (inactive) | > 100 µM (inactive) | > 100 µM (inactive) | > 100 µM (inactive) | > 100 µM (inactive) | > 100 µM (inactive) | > 100 µM (inactive) | > 100 µM (inactive) | > 100 µM (inactive) | – | > 100 µM (inactive) | > 100 µM (inactive) | > 100 µM (inactive) | > 100 µM (inactive) | > 100 µM (inactive) | – |
| CC1=C(C(=O)Nc2ccccc2C)C(c2ccc([N+](=O)[O-])cc2)C(C(=O)Nc2ccccc2C)=C(C)N1 | 22.8 µM (inactive) | 44.9 µM (inactive) | 20.5 µM (inactive) | 11.3 µM (inactive) | 28.6 µM (inactive) | 39.9 µM (inactive) | 14 µM (inactive) | 29.9 µM (inactive) | 39.1 µM (inactive) | > 100 µM (inactive) | 38.2 µM (inactive) | 43.4 µM (inactive) | 25.3 µM (inactive) | 53.6 µM (inactive) | 58.2 µM (inactive) | 63.4 µM (inactive) | 43.9 µM (inactive) | – |
| CC(=O)OCC1OC(OCc2ccccc2)C(Br)C(OC(C)=O)C1OC(C)=O (stereo unspecified) | – | > 100 µM (inactive) | – | > 100 µM (inactive) | > 100 µM (inactive) | > 100 µM (inactive) | > 100 µM (inactive) | > 100 µM (inactive) | > 100 µM (inactive) | > 100 µM (inactive) | – | > 100 µM (inactive) | > 100 µM (inactive) | > 100 µM (inactive) | > 100 µM (inactive) | > 100 µM (inactive) | > 100 µM (inactive) | > 100 µM (inactive) |
| Cc1cccc(NC(=O)CC#N)c1Cl | > 100 µM (inactive) | – | 99.3 µM (inactive) | – | > 100 µM (inactive) | > 100 µM (inactive) | – | – | > 100 µM (inactive) | – | > 100 µM (inactive) | > 100 µM (inactive) | > 100 µM (inactive) | > 100 µM (inactive) | > 100 µM (inactive) | > 100 µM (inactive) | > 100 µM (inactive) | > 100 µM (inactive) |
| O=C1c2ccc3c4ccccc4n(-c4ccccc4)c3c2C(=O)N1c1ccc(Cl)cc1 | > 100 µM (inactive) | > 100 µM (inactive) | > 100 µM (inactive) | > 100 µM (inactive) | – | > 100 µM (inactive) | > 100 µM (inactive) | > 100 µM (inactive) | > 100 µM (inactive) | > 100 µM (inactive) | > 100 µM (inactive) | > 100 µM (inactive) | > 100 µM (inactive) | > 100 µM (inactive) | > 100 µM (inactive) | – | > 100 µM (inactive) | 37.3 µM (inactive) |
| CCOC1(COP(=O)(OCc2ccccc2)OCc2ccccc2)COC(COP(=O)(OCc2ccccc2)OCc2ccccc2)(OCC)CO1 (stereo unspecified) | – | 95.7 µM (inactive) | – | > 100 µM (inactive) | 74.6 µM (inactive) | > 100 µM (inactive) | – | > 100 µM (inactive) | > 100 µM (inactive) | > 100 µM (inactive) | > 100 µM (inactive) | > 100 µM (inactive) | 17.4 µM (inactive) | > 100 µM (inactive) | > 100 µM (inactive) | > 100 µM (inactive) | > 100 µM (inactive) | 2.99 µM (inactive) |
| CCOC(=O)C1=C(C)N(c2ccccc2)C2=C(C(=O)N(c3ccccc3)C2c2ccccc2)C1c1ccccc1 (stereo unspecified) | > 100 µM (inactive) | > 100 µM (inactive) | > 100 µM (inactive) | > 100 µM (inactive) | > 100 µM (inactive) | > 100 µM (inactive) | – | > 100 µM (inactive) | > 100 µM (inactive) | > 100 µM (inactive) | > 100 µM (inactive) | > 100 µM (inactive) | > 100 µM (inactive) | > 100 µM (inactive) | > 100 µM (inactive) | > 100 µM (inactive) | > 100 µM (inactive) | > 100 µM (inactive) |
| O=C(Nc1ccc(Nc2ccc(NC(=O)c3ccccc3)c3c2C(=O)c2ccccc2C3=O)c2c1C(=O)c1ccccc1C2=O)c1ccccc1 | 35.6 µM (inactive) | > 100 µM (inactive) | > 100 µM (inactive) | > 100 µM (inactive) | > 100 µM (inactive) | > 100 µM (inactive) | > 100 µM (inactive) | > 100 µM (inactive) | > 100 µM (inactive) | > 100 µM (inactive) | > 100 µM (inactive) | – | > 100 µM (inactive) | > 100 µM (inactive) | – | > 100 µM (inactive) | > 100 µM (inactive) | – |
| CC(=O)O[C@]1(C)OC(=O)[C@@H](C)N1[N+](=O)[O-] | 57.1 µM (inactive) | 39.2 µM (inactive) | > 100 µM (inactive) | > 100 µM (inactive) | > 100 µM (inactive) | > 100 µM (inactive) | > 100 µM (inactive) | > 100 µM (inactive) | – | > 100 µM (inactive) | > 100 µM (inactive) | 72.3 µM (inactive) | 45.9 µM (inactive) | > 100 µM (inactive) | > 100 µM (inactive) | > 100 µM (inactive) | > 100 µM (inactive) | – |
| CCN(CC)CCOC(=O)/C(=C/c1ccc(OC)cc1)c1cc(OC)c(OC)c(OC)c1 | 0.91 µM (active) | 9.66 µM (inactive) | 5.13 µM (inactive) | 3.26 µM (inactive) | 16 µM (inactive) | 6.43 µM (inactive) | 2.48 µM (inactive) | 5.75 µM (inactive) | 5.45 µM (inactive) | 3.8 µM (inactive) | – | 5.08 µM (inactive) | 24.5 µM (inactive) | 3.28 µM (inactive) | 1.83 µM (inactive) | 6.08 µM (inactive) | 3.71 µM (inactive) | 3.27 µM (inactive) |
